The record followed here is US20200308171A1, “BIFUNCTIONAL INHIBITORS WITH EGFR HAVING A E3 UBIQUITIN LIGASE MOIETY” (Hoffmann-La Roche Inc., priority 2017, published 2020).

Structures are written as SMILES. Counter-ions that a name gives are not always drawn.

The experiment concerns the target T1, EGFR T790M/L858R/C797S (Homo sapiens, UniProt P00533, C797S/L858R/T790M).
T1 construct: expressed in transfected cells; host or cells: BaF3 (murine pro-B) cells stably transduced with pCDH lentiviral vector, PGK promoter
In words: EGFR Degradation Assay (Cellular), FRET quantification of total EGFR. As to conditions: BaF3 EGFR mutant cell line (EGFR T790M/L858R/C797S); 4-hour incubation; total EGFR FRET kit; top concentration 1 μM, 11 points; read-out: IC50 [nM] mutant EGFR degradation. Format: cell-based. The procedure: EGFR Degradation Assay (Cellular)
The BaF3 parental line was purchased from DSMZ and grown in RPMI media supplemented with 10% FBS and 10 ng/mL interleukin 3 (IL-3) (Thermo Fisher Scientific). EGFR mutants ([…]) were cloned into the pCDH lentiviral vector (SystemBio) under the control of a PGK promoter and confirmed by DNA sequencing. The resulting gene expression vector for each mutant was mixed with packaging vectors and cotransfected into 2×10E6 HEK293T cells (ATCC) in 10 mL of DMEM media to generate lentiviral particles according to the manufacturers protocol (Origene).
Three days post-transfection, the viral supernatant was harvested and filtered. In one well of a 12-well plate, 0.5 mL of viral supernatant was added to 2E6 Ba/F3 cells contained in 1.5 mL of RPMI media including 10% FBS, 10 ng/mL IL-3, and 5 μg/mL polybrene (Invitrogen). The plate was centrifuged at 2,000 rpm for 1 hour at room temperature and infected cells were kept in a tissue culture incubator overnight at 37° C. The cells were washed once in fresh BaF3 media and reseeded at 0.5E6 cells/well of a 12-well plate in media supplemented with 0.5 μg/mL puromycin. The cells were maintained in this media for 3 weeks. IL-3-independent, EGFR mutant transformed cells were routinely maintained in RPMI medium supplemented with 10% FBS.
RPMI 1640 no-phenol red medium and fetal bovine serum (FBS) were purchased from Gibco (Grand Island, N.Y., USA). EGFR total kit and EGFR phospho-Y1068 kit were purchased from Cisbio (Bedford, Mass., USA). BaF3 EGFR mutant cell lines (EGFR T790M/L858R/C797S) cell line was generated in house, according to the protocol reported above. Cell culture flasks and 384-well microplates were acquired from VWR (Radnor, Pa., USA).
EGFR degradation was determined based on quantification of FRET signal using EGFR total kit. The FRET signal detected correlates with total EGFR protein level in cells. Briefly, test compounds were added to the 384-well plate from a top concentration of 1 μM with 11 points, half log titration in quadruplicates. Then, BaF3 EGFR mutant cell lines (EGFR T790M/L858R/C797S) were added into 384-well plates at a cell density of 10000 cells per well. The plates were kept at 37° C. with 5% CO2 for 4 hours. After 4-hour incubation, 4× lysis buffer was added to the cells, and then microplate was agitated on plate shaker at 500 rpm for 30 minutes at room temperature. Next, total EGFR antibody solution was added to the cells and the cells were incubated for another 4 hours at room temperature. Finally, FRET signal was acquired on EnVision™ Multilabel Reader (PerkinElmer, Santa Clara, Calif., USA). The cells treated in the absence of the test compound were the negative control and lysis buffer with antibody solution only were the positive control.

T1 sequence (P00533 25-1210 T790M/C797S/L858R): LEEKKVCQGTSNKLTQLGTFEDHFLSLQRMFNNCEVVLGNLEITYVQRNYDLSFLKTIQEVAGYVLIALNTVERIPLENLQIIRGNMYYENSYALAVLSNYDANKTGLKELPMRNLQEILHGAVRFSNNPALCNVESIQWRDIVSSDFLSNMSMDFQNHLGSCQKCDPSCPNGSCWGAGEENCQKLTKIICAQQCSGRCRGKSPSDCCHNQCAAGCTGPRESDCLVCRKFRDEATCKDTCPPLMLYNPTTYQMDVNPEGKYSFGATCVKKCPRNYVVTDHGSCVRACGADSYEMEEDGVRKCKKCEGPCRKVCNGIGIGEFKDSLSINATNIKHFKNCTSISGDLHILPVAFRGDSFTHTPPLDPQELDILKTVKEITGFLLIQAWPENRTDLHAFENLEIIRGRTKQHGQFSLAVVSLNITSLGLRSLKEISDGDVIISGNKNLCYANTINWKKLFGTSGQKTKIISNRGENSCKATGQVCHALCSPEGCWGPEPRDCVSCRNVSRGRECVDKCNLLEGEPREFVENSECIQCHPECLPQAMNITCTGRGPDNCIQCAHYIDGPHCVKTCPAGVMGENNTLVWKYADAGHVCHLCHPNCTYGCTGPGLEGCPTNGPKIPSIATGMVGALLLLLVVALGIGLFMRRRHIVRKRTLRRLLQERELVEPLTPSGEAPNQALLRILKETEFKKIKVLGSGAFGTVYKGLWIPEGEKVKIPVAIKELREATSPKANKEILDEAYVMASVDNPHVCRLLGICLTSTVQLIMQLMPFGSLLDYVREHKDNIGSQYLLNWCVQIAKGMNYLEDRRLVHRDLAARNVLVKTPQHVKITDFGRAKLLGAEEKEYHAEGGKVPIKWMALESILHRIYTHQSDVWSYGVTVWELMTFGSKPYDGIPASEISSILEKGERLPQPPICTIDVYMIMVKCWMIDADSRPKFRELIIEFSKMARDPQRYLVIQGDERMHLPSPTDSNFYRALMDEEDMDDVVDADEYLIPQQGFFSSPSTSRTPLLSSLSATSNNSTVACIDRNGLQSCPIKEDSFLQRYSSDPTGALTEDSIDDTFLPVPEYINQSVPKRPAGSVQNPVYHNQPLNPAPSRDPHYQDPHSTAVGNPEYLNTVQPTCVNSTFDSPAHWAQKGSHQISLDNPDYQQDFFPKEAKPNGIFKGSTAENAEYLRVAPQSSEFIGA

`CO[C@H]1CCN(c2nccc(Nc3cc4c(cn3)c(C(=O)NC3CCN(CCCCCCNc5cccc6c5C(=O)N(C5CCC(=O)NC5=O)C6=O)CC3)cn4C(C)C)n2)C[C@H]1F` (mixture of isomers) [Example 7, N-[1-[6-[[2-[(3RS)-2,6-Dioxo-3-piperidyl]-1,3-dioxo-isoindolin-4-yl]amino]hexyl]-4-piperidyl]-6-[[2-[(3R,4S)-3-fluoro-4-methoxy-1-piperidyl]pyrimidin-4-yl]amino]-1-isopropyl-pyrrolo[3,2-c]pyridine-3-carboxamide]: the DC50 turned out to be 70 nM.
For the molecule `CO[C@H]1CCN(c2nccc(Nc3cc4c(cn3)c(C(=O)NC3CCN(CCC5CN(c6cccc7c6C(=O)N(C6CCC(=O)NC6=O)C7=O)C5)CC3)cn4C(C)C)n2)C[C@H]1F` (mixture of isomers) [Example 23, N-[1-[2-[1-[2-[(3RS)-2,6-Dioxo-3-piperidyl]-1,3-dioxo-isoindolin-4-yl]azetidin-3-yl]ethyl]-4-piperidyl]-6-[[2-[(3R,4S)-3-fluoro-4-methoxy-1-piperidyl]pyrimidin-4-yl]amino]-1-isopropyl-pyrrolo[3,2-c]pyridine-3-carboxamide], the DC50 turned out to be 8 nM.
To `CO[C@H]1CCN(c2nccc(Nc3cc4c(cn3)c(C(=O)NC3CCN(CCC5CCN(c6ccc7c(c6)C(=O)N(C6CCC(=O)NC6=O)C7=O)CC5)CC3)cn4C3CCCC3)n2)C[C@H]1F` (mixture of isomers) [Example 15, 1-Cyclopentyl-N-[1-[2-[1-[2-[(3RS)-2,6-dioxo-3-piperidyl]-1,3-dioxo-isoindolin-5-yl]-4-piperidyl]ethyl]-4-piperidyl]-6-[[2-[(3R,4S)-3-fluoro-4-methoxy-1-piperidyl]pyrimidin-4-yl]amino]pyrrolo[3,2-c]pyridine-3-carboxamide] belongs 49 nM; to `CO[C@H]1CCN(c2nccc(Nc3cc4c(cn3)c(C(=O)NC3CCN(CCCC5CCN(c6cccc7c6C(=O)N(C6CCC(=O)NC6=O)C7=O)CC5)CC3)cn4C(C)C)n2)C[C@H]1F` (mixture of isomers) [Example 12, N-[1-[3-[1-[2-[(3RS)-2,6-Dioxo-3-piperidyl]-1,3-dioxo-isoindolin-4-yl]-4-piperidyl]propyl]-4-piperidyl]-6-[[2-[(3R,4S)(3S,4R)-3-fluoro-4-methoxy-1-piperidyl]pyrimidin-4-yl]amino]-1-isopropyl-pyrrolo[3,2-c]pyridine-3-carboxamide trifluoroacetate], 69 nM.
To `CO[C@H]1CCN(c2nccc(Nc3cc4c(cn3)c(C(=O)NC3CCN(CCCOC5CN(c6cccc7c6C(=O)N(C6CCC(=O)NC6=O)C7=O)C5)CC3)cn4C(C)C)n2)C[C@H]1F` (mixture of isomers) [Example 22, N-[1-[3-[1-[2-[(3RS)-2,6-Dioxo-3-piperidyl]-1,3-dioxo-isoindolin-4-yl]azetidin-3-yl]oxypropyl]-4-piperidyl]-6-[[2-[(3R,4S)-3-fluoro-4-methoxy-l-piperidyl]pyrimidin-4-yl]amino]-1-isopropyl-pyrrolo[3,2-c]pyridine-3-carboxamide] belongs 26 nM.
With `COC1CCN(c2nccc(Nc3cc4c(cn3)c(N3CCC(C(=O)NC5CCN(CCCCCCNc6cccc7c6C(=O)N(C6CCC(=O)NC6=O)C7=O)CC5)C3)nn4C(C)C)n2)CC1` (racemic) [Example 6, (3RS)—N-[1-[6-[[2-[(3RS)-2,6-Dioxo-3-piperidyl]-1,3-dioxo-isoindolin-4-yl]amino]hexyl]-4-piperidyl]-1-[1-isopropyl-6-[[2-(4-methoxy-1-piperidyl)pyrimidin-4-yl]amino]pyrazolo[4,3-c]pyridin-3-yl]pyrrolidine-3-carboxamide] the figure was 46 nM; with `CO[C@H]1CCN(c2nccc(Nc3cc4c(cn3)c(C(=O)NC3CCN(CCCCCCNc5cccc6c5C(=O)N(C5CCC(=O)NC5=O)C6=O)CC3)cn4C3CCCC3)n2)C[C@H]1F` (mixture of isomers) [Example 10, 1-Cyclopentyl-N-[1-[6-[[2-[(3RS)-2,6-dioxo-3-piperidyl]-1,3-dioxo-isoindolin-4-yl]amino]hexyl]-4-piperidyl]-6-[[2-[(3R,4S)-3-fluoro-4-methoxy-1-piperidyl]pyrimidin-4-yl]amino]pyrrolo[3,2-c]pyridine-3-carboxamide], 85 nM.
For `CO[C@H]1CCN(c2nccc(Nc3cc4c(cn3)c(C(=O)NC3CCN(CCCCCNc5cccc6c5C(=O)N(C5CCC(=O)NC5=O)C6=O)CC3)cn4C(C)C)n2)C[C@H]1F` (mixture of isomers) [Example 9, N-[1-[5-[[2-[(3RS)-2,6-Dioxo-3-piperidyl]-1,3-dioxo-isoindolin-4-yl]amino]pentyl]-4-piperidyl]-6-[[2-[(3R,4S)-3-fluoro-4-methoxy-1-piperidyl]pyrimidin-4-yl]amino]-1-isopropyl-pyrrolo[3,2-c]pyridine-3-carboxamide], the DC50 stood at 26 nM.
With `CO[C@H]1CCN(c2nccc(Nc3cc4c(cn3)c(C(=O)NC3CCN(CCCCNc5cccc6c5C(=O)N(C5CCC(=O)NC5=O)C6=O)CC3)cn4C(C)C)n2)C[C@H]1F` (mixture of isomers) [Example 14, N-[1-[4-[[2-[(3RS)-2,6-Dioxo-3-piperidyl]-1,3-dioxo-isoindolin-4-yl]amino]butyl]-4-piperidyl]-6-[[2-[(3R,4S)-3-fluoro-4-methoxy-1-piperidyl]pyrimidin-4-yl]amino]-1-isopropyl-pyrrolo[3,2-c]pyridine-3-carboxamide] the figure was 41 nM.
For `CO[C@H]1CCN(c2nccc(Nc3cc4c(cn3)c(C(=O)NC3CCN(CCC[C@H]5CC[C@H](Nc6cccc7c6C(=O)N(C6CCC(=O)NC6=O)C7=O)CC5)CC3)cn4C(C)C)n2)C[C@H]1F` (mixture of isomers) [Example 20, N-[1-[3-[4-[[2-[(3RS)-2,6-Dioxo-3-piperidyl]-1,3-dioxo-isoindolin-4-yl]amino]cyclohexyl]propyl]-4-piperidyl]-6-[[2-[(3R,4S)-3-fluoro-4-methoxy-l-piperidyl]pyrimidin-4-yl]amino]-1-isopropyl-pyrrolo[3,2-c]pyridine-3-carboxamide], the DC50 was determined as 15 nM.
To `COC1CCN(c2nccc(Nc3cc4c(cn3)c(C(=O)NC3CCN(CCCCCCNc5cccc6c5C(=O)N(C5CCC(=O)NC5=O)C6=O)CC3)cn4C(C)C)n2)CC1` (racemic) [Example 2, N-[1-[6-[[2-[(3RS)-2,6-Dioxo-3-piperidyl]-1,3-dioxo-isoindolin-4-yl]amino]hexyl]-4-piperidyl]-1-isopropyl-6-[[2-(4-methoxy-1-piperidyl)pyrimidin-4-yl]amino]pyrrolo[3,2-c]pyridine-3-carboxamide] belongs 132 nM.
To `CO[C@@H]1CCN(c2nccc(Nc3cc4c(cn3)c(C(=O)NC3CCN(CCCCCCNc5cccc6c5C(=O)N(C5CCC(=O)NC5=O)C6=O)CC3)nn4C(C)C)n2)C[C@@H]1F` (mixture of isomers) [Example 21, N-[1-[6-[[2-[(3RS)-2,6-Dioxo-3-piperidyl]-1,3-dioxo-isoindolin-4-yl]amino]hexyl]-4-piperidyl]-6-[[2-[(3S,4R)-3-fluoro-4-methoxy-1-piperidyl]pyrimidin-4-yl]amino]-1-isopropyl-pyrazolo[4,3-c]pyridine-3-carboxamide] belongs 2 nM.
